We go through eleven molecules from publication PMC12565300, “Novel Cyclic Tetrapeptides as Neuraminidase Inhibitors from a Sponge-Associated Penicillium sp. SCSIO41035” (Marine Drugs, 2025).

pIC50: −log10 of the molar value.

For one assay, the system named is two human carcinoma cell lines. The following applies: first of two human carcinoma cell lines; ref [7]; read-out: IC50 against human carcinoma cell line (first of two, unnamed); cited from earlier work. The text has this:
Cyclic tetrapeptides are a class of natural products with significant potential in drug discovery, characterized by their unique structural features and diverse biological activities. Their cyclic structure confers stability and contributes to their potency, while their low molecular weight and favorable lipophilicity enhance drug-like properties. […] The presence of hydr ...
Regarding Asperterrestide A, the negative-log IC50 (pIC50) (as a rule, the IC50 on a negative log10 scale, so that one unit is a factor of ten) is 5.21.

The same assay, now with this note: second of two human carcinoma cell lines; ref [7]; read-out: IC50 against human carcinoma cell line (second of two, unnamed); cited from earlier work.
Consider Asperterrestide A, for which the pIC50 is 5.19.

The test system of a further assay is neuraminidase. The note with it: 100 µg/mL; Mean ± SD (n not given); fluorogenic substrate, 37 °C, 30 min; ex 322 nm, em 450 nm; compound in DMSO. The method, then: 4.8. Neuraminidase Inhibitory Assay
The neuraminidase inhibitory activity was evaluated using a Neuraminidase In-hibitor Screening Kit (Beyotime Institute of Biotechnology, Shanghai, China). Assays were carried out in 96-well plates. For each well, 70 μL of neuraminidase assay buffer, 10 μL of neuraminidase solution, and 10 μL of test compound (dissolved in DMSO; final con-centration 100 μg/mL) were gently mixed. The reaction was initiated by adding 10 μL of the fluorogenic substrate to each well, and the plate was incubated at 37 °C for 30 min. Fluorescence was measured on an EnSpire microplate reader with excitation at 322 nm and emission at 450 nm. The fluorescence intensity of neuraminidase was measured at several concentrations to generate a standard curve relating fluorescence signal to enzyme concentration. The fluorescence corresponding to the highest neuraminidase concentration was set as 0% inhibition. Each sample well initially contained neuraminidase at this concentration, and the residual neuraminidase concentration after the reaction was determined from the measured fluorescence using the standard-curve equation. The inhibition percentages were then calculated.
For `CC12NC(=O)C(C[C@]13C(=O)Nc1ccccc13)n1c2nc2ccccc2c1=O` (stereo partly drawn) [Compound 8, alantrypinone], the “Inhibition Rate (neuraminidase inhibitory activity)” value (from here on “Inhibition Rate”) worked out at 43.85 ± 1.41%. Consider `O=C1N[C@@]2(CO)c3nc4ccccc4c(=O)n3[C@@H]1C[C@@]21C(=O)Nc2ccccc21` [Compound 9, serantrypinone], for which the “Inhibition Rate” value is given as 51.67 ± 0.42%. `CC(C)/C=C1\NC(=O)[C@H](CCC(N)=O)n2c1nc1ccccc1c2=O` [Compound 10, aurantiomide C]: the “Inhibition Rate” value is given as 67.54 ± 0.87%. With Penicopeptide B [Compound 1], the “Inhibition Rate” value was 52.90 ± 0.37%.

Penicopeptide C [Compound 2]: the “Inhibition Rate” value is reported as 43.16 ± 1.23%. For Penicopeptide D [Compound 3], the “Inhibition Rate” value is 58.67 ± 3.51%. In the case of Penicopeptide E [Compound 4], the “Inhibition Rate” value turned out to be 74.01 ± 1.32%.

Regarding Penicopeptide F [Compound 5], the “Inhibition Rate” value came out at 85.40 ± 0.85%. On to Penicopeptide G [Compound 6], for which the “Inhibition Rate” value was 63.65 ± 0.67%.

With Penicopeptide H [Compound 7], the “Inhibition Rate” value is listed as 57.78 ± 0.44%.
